pIC50: −log10 of the molar value.
The compounds below were run against T1, rat CB-1 receptor (Rattus norvegicus, UniProt P20272) (assay: rat CB-1 receptor binding protocol with [3H]CP-55940). Details: not given.
T1 construct: The tissue obtained from the brain of SD rats was homogenized; from tissue; host or cells: brain of SD rats (membrane pellet of homogenate)
T1 sequence (P20272 whole entry): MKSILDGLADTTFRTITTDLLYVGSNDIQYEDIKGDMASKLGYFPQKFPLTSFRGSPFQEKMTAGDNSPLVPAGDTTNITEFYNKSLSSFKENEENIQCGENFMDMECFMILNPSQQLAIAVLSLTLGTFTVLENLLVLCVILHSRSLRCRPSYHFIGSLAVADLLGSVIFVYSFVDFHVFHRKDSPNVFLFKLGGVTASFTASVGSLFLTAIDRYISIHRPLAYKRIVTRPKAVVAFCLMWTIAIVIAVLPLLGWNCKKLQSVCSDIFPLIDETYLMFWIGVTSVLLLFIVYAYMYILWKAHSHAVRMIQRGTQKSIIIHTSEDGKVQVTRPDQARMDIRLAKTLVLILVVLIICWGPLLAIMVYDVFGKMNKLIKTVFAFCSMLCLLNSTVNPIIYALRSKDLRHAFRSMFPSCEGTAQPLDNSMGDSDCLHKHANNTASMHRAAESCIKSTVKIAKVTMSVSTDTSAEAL

SMILES | pIC50
CCc1c(-c2nnc(C3(c4ccc(Cl)cc4)CC3)o2)nc(-c2ccc(Cl)cc2Cl)n1-c1ccc(Br)cc1 [Example 40, 2-(1-(4-Bromophenyl)-2-(2,4-dichlorophenyl)-5-ethyl-1H-imidazol-4-yl)-5-(1-(4-chlorophenyl)cyclopropyl)-1,3,4-oxadiazole] | 8.04
CCc1c(-c2nnc(C3(c4ccc(OC)cc4)CC3)o2)nc(-c2ccc(Cl)cc2Cl)n1-c1ccc(Br)cc1 [Example 42, 2-(1-(4-Bromophenyl)-2-(2,4-dichlorophenyl)-5-ethyl-1H-imidazol-4-yl)-5-(1-(4-methoxyphenyl)cyclopropyl)-1,3,4-oxadiazole] | 7.73
CCc1c(-c2nnc(C3(c4ccc(C)cc4)CC3)o2)nc(-c2ccc(Cl)cc2Cl)n1-c1ccc(Br)cc1 [Example 43, 2-(1-(4-Bromophenyl)-2-(2,4-dichlorophenyl)-5-ethyl-1H-imidazol-4-yl)-5-(1-p-tolylcyclopropyl)-1,3,4-oxadiazole] | 8.08
CCc1c(-c2nnc(C3(c4ccc(Cl)cc4Cl)CC3)o2)nc(-c2ccc(Cl)cc2Cl)n1-c1ccc(Br)cc1 [Example 44, 2-(1-(4-Bromophenyl)-2-(2,4-dichlorophenyl)-5-ethyl-1H-imidazol-4-yl)-5-(1-(2,4-dichlorophenyl)cyclopropyl)-1,3,4-oxadiazole] | 8.09
CCc1c(-c2nnc(C3(C(F)(F)F)CCC3)o2)nc(-c2ccc(Cl)cc2Cl)n1-c1ccc(Br)cc1 [Example 50, 2-(1-(4-Bromophenyl)-2-(2,4-dichlorophenyl)-5-ethyl-1H-imidazol-4-yl)-5-(1-(trifluoromethyl)cyclobutyl)-1,3,4-oxadiazole] | 8.02
Cc1c(-c2nnc(C(C)(C)C)o2)nc(-c2ccccc2Cl)n1-c1ccc(Br)cc1 [Example 51, 2-(1-(4-Bromophenyl)-2-(2-chlorophenyl)-5-methyl-1H-imidazol-4-yl)-5-tert-butyl-1,3,4-oxadiazole] | 7.50
Cc1c(-c2nnc(C3(C(F)(F)F)CCC3)o2)nc(-c2ccccc2Cl)n1-c1ccc(Br)cc1 [Example 53, 2-(1-(4-Bromophenyl)-2-(2-chlorophenyl)-5-methyl-1H-imidazol-4-yl)-5-(1-(trifluoromethyl)cyclobutyl)-1,3,4-oxadiazole] | 7.94
CCc1c(-c2nnc(C3(C(F)(F)F)CCC3)o2)nc(-c2ccccc2Cl)n1-c1ccc(Br)cc1 [Example 57, 2-(1-(4-Bromophenyl)-2-(2-chlorophenyl)-5-ethyl-1H-imidazol-4-yl)-5-(1-(trifluoromethyl)cyclobutyl)-1,3,4-oxadiazole] | 7.87
FC(F)(F)C1(c2nnc(-c3nc(-c4ccc(Cl)cc4Cl)n(-c4ccc(Br)cc4)c3Cn3cncn3)o2)CCC1 [Example 76, 2-(5-((1H-1,2,4-Triazol-1-yl)methyl)-1-(4-bromophenyl)-2-(2,4-dichlorophenyl)-1H-imidazol-4-yl)-5-(1-(trifluoromethyl)cyclobutyl)-1,3,4-oxadiazole] | 8.40

Same assay, conditions: [3H]CP-55940, brain tissue of SD rats, 30 °C for 60 min; read-out: IC50

SMILES | pIC50
CCCc1c(-c2nnc(C(C)(C)C)o2)nc(-c2ccc(Cl)cc2Cl)n1-c1ccc(Cl)cc1 [Example 35, 2-tert-Butyl-5-(1-(4-chlorophenyl)-2-(2,4-dichlorophenyl)-5-propyl-1H-imidazol-4-yl)-1,3,4-oxadiazole] | 7.72
CCCc1c(-c2nnc(C3CCC3)o2)nc(-c2ccc(Cl)cc2Cl)n1-c1ccc(Cl)cc1 [Example 36, 2-(1-(4-Chlorophenyl)-2-(2,4-dichlorophenyl)-5-propyl-1H-imidazol-4-yl)-5-cyclobutyl-1,3,4-oxadiazole] | 7.22
CCCc1c(-c2nnc(C3(c4ccc(Cl)cc4)CC3)o2)nc(-c2ccc(Cl)cc2Cl)n1-c1ccc(Cl)cc1 [Example 37, 2-(1-(4-Chlorophenyl)-2-(2,4-dichlorophenyl)-5-propyl-1H-imidazol-4-yl)-5-(1-(4-chlorophenyl)cyclopropyl)-1,3,4-oxadiazole] | 7.82
CCCc1c(-c2nnc(C3(c4ccc(Cl)cc4)CCC3)o2)nc(-c2ccc(Cl)cc2Cl)n1-c1ccc(Cl)cc1 [Example 38, 2-(1-(4-Chlorophenyl)-2-(2,4-dichlorophenyl)-5-propyl-1H-imidazol-4-yl)-5-(1-(4-chlorophenyl)cyclobutyl)-1,3,4-oxadiazole] | 7.93
CCCc1c(-c2nnc(C3CCCCC3)o2)nc(-c2ccc(Cl)cc2Cl)n1-c1ccc(Cl)cc1 [Example 39, 2-(1-(4-Chlorophenyl)-2-(2,4-dichlorophenyl)-5-propyl-1H-imidazol-4-yl)-5-cyclohexyl-1,3,4-oxadiazole] | 7.06
CCc1c(-c2nnc(C3(c4ccc(Cl)cc4)CCC3)o2)nc(-c2ccc(Cl)cc2Cl)n1-c1ccc(Br)cc1 [Example 41, 2-(1-(4-Bromophenyl)-2-(2,4-dichlorophenyl)-5-ethyl-1H-imidazol-4-yl)-5-(1-(4-chlorophenyl)cyclobutyl)-1,3,4-oxadiazole] | 7.87
CCc1c(-c2nnc(C3(c4ccc(Cl)cc4)CCCC3)o2)nc(-c2ccc(Cl)cc2Cl)n1-c1ccc(Br)cc1 [Example 45, 2-(1-(4-Bromophenyl)-2-(2,4-dichlorophenyl)-5-ethyl-1H-imidazol-4-yl)-5-(1-(4-chlorophenyl)cyclopentyl)-1,3,4-oxadiazole] | 7.94
Cc1c(-c2nnc(C3(C(F)(F)F)CC3)o2)nc(-c2ccc(Cl)cc2Cl)n1-c1ccc(Br)cc1 [Example 46, 2-(1-(4-Bromophenyl)-2-(2,4-dichlorophenyl)-5-methyl-1H-imidazol-4-yl)-5-(1-(trifluoromethyl)cyclopropyl)-1,3,4-oxadiazole] | 7.81
Cc1c(-c2nnc(C3(C(F)(F)F)CCC3)o2)nc(-c2ccc(Cl)cc2Cl)n1-c1ccc(Br)cc1 [Example 47, 2-(1-(4-Bromophenyl)-2-(2,4-dichlorophenyl)-5-methyl-1H-imidazol-4-yl)-5-(1-(trifluoromethyl)cyclobutyl)-1,3,4-oxadiazole] | 7.56
Cc1c(-c2nnc(C3(c4ccc(Cl)cc4)CC3)o2)nc(-c2ccc(Cl)cc2Cl)n1-c1ccc(Br)cc1 [Example 48, 2-(1-(4-Bromophenyl)-2-(2,4-dichlorophenyl)-5-methyl-1H-imidazol-4-yl)-5-(1-(4-chlorophenyl)cyclopropyl)-1,3,4-oxadiazole] | 7.73
CCc1c(-c2nnc(C3(C(F)(F)F)CC3)o2)nc(-c2ccc(Cl)cc2Cl)n1-c1ccc(Br)cc1 [Example 49, 2-(1-(4-Bromophenyl)-2-(2,4-dichlorophenyl)-5-ethyl-1H-imidazol-4-yl)-5-(1-(trifluoromethyl)cyclopropyl)-1,3,4-oxadiazole] | 7.78
Cc1c(-c2nnc(C3(C(F)(F)F)CC3)o2)nc(-c2ccccc2Cl)n1-c1ccc(Br)cc1 [Example 52, 2-(1-(4-Bromophenyl)-2-(2-chlorophenyl)-5-methyl-1H-imidazol-4-yl)-5-(1-(trifluoromethyl)cyclopropyl)-1,3,4-oxadiazole] | 7.73
CCc1c(-c2nnc(C(C)(C)C)o2)nc(-c2ccccc2Cl)n1-c1ccc(Br)cc1 [Example 55, 2-(1-(4-Bromophenyl)-2-(2-chlorophenyl)-5-ethyl-1H-imidazol-4-yl)-5-tert-butyl-1,3,4-oxadiazole] | 7.83
CCc1c(-c2nnc(C3(C(F)(F)F)CC3)o2)nc(-c2ccccc2Cl)n1-c1ccc(Br)cc1 [Example 56, 2-(1-(4-Bromophenyl)-2-(2-chlorophenyl)-5-ethyl-1H-imidazol-4-yl)-5-(1-(trifluoromethyl)cyclopropyl)-1,3,4-oxadiazole] | 7.70
CCc1c(-c2nnc(C3(c4ccc(Cl)cc4)CC3)o2)nc(-c2ccccc2Cl)n1-c1ccc(Br)cc1 [Example 58, 2-(1-(4-Bromophenyl)-2-(2-chlorophenyl)-5-ethyl-1H-imidazol-4-yl)-5-(1-(4-chlorophenyl)cyclopropyl)-1,3,4-oxadiazole] | 7.99
CC(C)(C)c1nnc(-c2nc(-c3ccc(Cl)cc3Cl)n(-c3ccc(Br)cc3)c2Cn2cncn2)o1 [Example 74, 2-(5-((1H-1,2,4-Triazol-1-yl)methyl)-1-(4-bromophenyl)-2-(2,4-dichlorophenyl)-1H-imidazol-4-yl)-5-tert-butyl-1,3,4-oxadiazole] | 8.28
FC(F)(F)C1(c2nnc(-c3nc(-c4ccc(Cl)cc4Cl)n(-c4ccc(Br)cc4)c3Cn3cncn3)o2)CC1 [Example 75, 2-(5-((1H-1,2,4-Triazol-1-yl)methyl)-1-(4-bromophenyl)-2-(2,4-dichlorophenyl)-1H-imidazol-4-yl)-5-(1-(trifluoromethyl)cyclopropyl)-1,3,4-oxadiazole] | 8.06
Clc1ccc(C2(c3nnc(-c4nc(-c5ccc(Cl)cc5Cl)n(-c5ccc(Br)cc5)c4Cn4cncn4)o3)CC2)cc1 [Example 77, 2-(5-((1H-1,2,4-Triazol-1-yl)methyl)-1-(4-bromophenyl)-2-(2,4-dichlorophenyl)-1H-imidazol-4-yl)-5-(1-(4-chlorophenyl)cyclopropyl)-1,3,4-oxadiazole] | 8.47
CC(C)(C)c1nnc(-c2nc(-c3ccccc3Cl)n(-c3ccc(Br)cc3)c2Cn2cncn2)o1 [Example 78, 2-(5-((1H-1,2,4-Triazol-1-yl)methyl)-1-(4-bromophenyl)-2-(2-chlorophenyl)-1H-imidazol-4-yl)-5-tert-butyl-1,3,4-oxadiazole] | 7.99
FC(F)(F)C1(c2nnc(-c3nc(-c4ccccc4Cl)n(-c4ccc(Br)cc4)c3Cn3cncn3)o2)CC1 [Example 79, 2-(5-((1H-1,2,4-Triazol-1-yl)methyl)-1-(4-bromophenyl)-2-(2-chlorophenyl)-1H-imidazol-4-yl)-5-(1-(trifluoromethyl)cyclopropyl)-1,3,4-oxadiazole] | 8.16
FC(F)(F)C1(c2nnc(-c3nc(-c4ccccc4Cl)n(-c4ccc(Br)cc4)c3Cn3cncn3)o2)CCC1 [Example 80, 2-(5-((1H-1,2,4-Triazol-1-yl)methyl)-1-(4-bromophenyl)-2-(2-chlorophenyl)-1H-imidazol-4-yl)-5-(1-(trifluoromethyl)cyclobutyl)-1,3,4-oxadiazole] | 8.47
CC(C)(C)c1nnc(-c2nc(-c3ccc(Cl)cc3Cl)n(-c3ccc(Cl)cc3)c2Cn2cncn2)o1 [Example 87, 2-(5-((1H-1,2,4-Triazol-1-yl)methyl)-1-(4-chlorophenyl)-2-(2,4-dichlorophenyl)-1H-imidazol-4-yl)-5-tert-butyl-1,3,4-oxadiazole] | 7.92

Source: patent US20080207705A1, “Heteroaryl-Imidazole Derivatives as Cannabinoid CB1 Receptor Antagonists” (Green Cross Corporation, priority 2007, published 2008)
